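Following 48 hours of exposure in 96-well plates, responses at five concentrations were used to interpolate endpoints linearly. Here, GI50 denotes the concentration required for 50% inhibition of growth.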 The source made the active and inactive calls. No stated cut-off is given here; in the data, active = GI50 up to about 1.1 µM and inactive = higher.
Legend:
Experiment in all cases: NCI-60 cell line screen, 48 h
HT-29 = system: HT-29
SR = system: SR
RPMI-8226 = system: RPMI-8226
SW-620 = system: SW-620
M14 = system: M14
HOP-62 = system: HOP-62
HL-60 = system: HL-60
OVCAR-5 = system: OVCAR-5
COLO 205 = system: COLO 205
DMS-273 = system: DMS-273
RXF 393 = system: RXF 393
CAKI-1 = system: CAKI-1
U-251 = system: U-251
LOX IMVI = system: LOX IMVI
OVCAR-3 = system: OVCAR-3
KM12 = system: KM12
OVCAR-8 = system: OVCAR-8

Measured: GI50

Cc1cc(Br)cc(C)c1NC(=O)C(=O)C(C(=O)c1ccc(Cl)c(Cl)c1)C1OC(=O)c2ccccc21 (stereo unspecified)
inactive: HT-29 29.9 µM | SR 7.71 µM | RPMI-8226 42.2 µM | SW-620 > 100 µM | M14 > 100 µM | HOP-62 43.6 µM | HL-60 24.5 µM | OVCAR-5 21.7 µM | COLO 205 47.5 µM | DMS-273 63.2 µM | RXF 393 > 100 µM | CAKI-1 34.8 µM | U-251 44.6 µM | LOX IMVI > 100 µM | OVCAR-3 37.1 µM | KM12 36.8 µM | OVCAR-8 > 100 µM

Cc1nnc(N/N=C2\C(=O)Nc3ccccc32)n1N
inactive: HT-29 > 100 µM | SR > 100 µM | RPMI-8226 > 100 µM | SW-620 > 100 µM | M14 > 100 µM | HOP-62 > 100 µM | HL-60 25.9 µM | OVCAR-5 > 100 µM | COLO 205 67.5 µM | DMS-273 > 100 µM | RXF 393 > 100 µM | CAKI-1 > 100 µM | U-251 > 100 µM | LOX IMVI > 100 µM | OVCAR-3 > 100 µM | KM12 > 100 µM | OVCAR-8 > 100 µM

COc1ccc(/C=C2\CNC/C(=C\c3ccc(OC)cc3)C2=O)cc1
inactive: HT-29 27.2 µM | SR 24.8 µM | RPMI-8226 15.6 µM | SW-620 15.8 µM | M14 > 100 µM | HOP-62 > 100 µM | HL-60 14 µM | OVCAR-5 > 100 µM | COLO 205 49.4 µM | DMS-273 23.2 µM | RXF 393 21 µM | CAKI-1 14.1 µM | U-251 17.6 µM | LOX IMVI 4.22 µM | OVCAR-3 35 µM | KM12 15.9 µM | OVCAR-8 16.1 µM
